{"source": "paper PMC7108927", "about": "“TYK2 inhibition reduces type 3 immunity and modifies disease progression in murine spondyloarthritis” (The Journal of Clinical Investigation, 2020)", "test_in_all_cases": "radiometric kinase assay with peptide substrate", "type_in_all_cases": "biochemical", "key": {"JAK2": {"target": "JAK2 (Homo sapiens, UniProt O60674)", "sequence (O60674 whole entry)": "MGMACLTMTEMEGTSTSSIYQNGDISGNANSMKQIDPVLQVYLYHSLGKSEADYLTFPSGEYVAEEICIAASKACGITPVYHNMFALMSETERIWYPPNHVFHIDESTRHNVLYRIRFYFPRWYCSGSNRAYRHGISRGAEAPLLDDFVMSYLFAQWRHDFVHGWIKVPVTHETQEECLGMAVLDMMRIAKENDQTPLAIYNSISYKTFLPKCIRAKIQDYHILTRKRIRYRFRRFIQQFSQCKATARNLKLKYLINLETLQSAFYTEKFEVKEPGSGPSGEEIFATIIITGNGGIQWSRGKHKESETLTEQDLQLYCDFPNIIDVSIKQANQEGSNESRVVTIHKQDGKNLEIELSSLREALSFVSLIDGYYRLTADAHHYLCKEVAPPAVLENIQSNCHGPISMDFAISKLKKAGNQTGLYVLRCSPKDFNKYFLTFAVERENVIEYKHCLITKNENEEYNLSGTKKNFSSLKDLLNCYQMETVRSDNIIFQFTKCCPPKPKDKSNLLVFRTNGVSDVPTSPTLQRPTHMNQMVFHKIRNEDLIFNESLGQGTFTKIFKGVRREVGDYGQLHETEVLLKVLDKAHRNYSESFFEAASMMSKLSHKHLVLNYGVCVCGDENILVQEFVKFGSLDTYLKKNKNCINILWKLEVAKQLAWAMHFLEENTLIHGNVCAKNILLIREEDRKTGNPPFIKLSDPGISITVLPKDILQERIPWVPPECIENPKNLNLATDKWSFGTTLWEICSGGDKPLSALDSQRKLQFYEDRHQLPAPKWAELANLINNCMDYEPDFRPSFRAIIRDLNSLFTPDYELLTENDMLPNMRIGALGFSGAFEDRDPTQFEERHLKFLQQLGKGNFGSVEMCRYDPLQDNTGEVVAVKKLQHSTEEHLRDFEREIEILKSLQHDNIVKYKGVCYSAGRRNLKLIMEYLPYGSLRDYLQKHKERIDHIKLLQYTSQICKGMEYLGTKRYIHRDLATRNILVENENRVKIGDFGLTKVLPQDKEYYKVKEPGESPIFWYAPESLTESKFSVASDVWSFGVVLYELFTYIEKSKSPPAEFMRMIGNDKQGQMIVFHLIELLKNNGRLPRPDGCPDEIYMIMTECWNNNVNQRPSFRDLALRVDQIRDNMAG"}, "JAK3": {"target": "T1, JAK3 (Homo sapiens, UniProt P52333)", "T1 sequence (P52333 1-1124)": "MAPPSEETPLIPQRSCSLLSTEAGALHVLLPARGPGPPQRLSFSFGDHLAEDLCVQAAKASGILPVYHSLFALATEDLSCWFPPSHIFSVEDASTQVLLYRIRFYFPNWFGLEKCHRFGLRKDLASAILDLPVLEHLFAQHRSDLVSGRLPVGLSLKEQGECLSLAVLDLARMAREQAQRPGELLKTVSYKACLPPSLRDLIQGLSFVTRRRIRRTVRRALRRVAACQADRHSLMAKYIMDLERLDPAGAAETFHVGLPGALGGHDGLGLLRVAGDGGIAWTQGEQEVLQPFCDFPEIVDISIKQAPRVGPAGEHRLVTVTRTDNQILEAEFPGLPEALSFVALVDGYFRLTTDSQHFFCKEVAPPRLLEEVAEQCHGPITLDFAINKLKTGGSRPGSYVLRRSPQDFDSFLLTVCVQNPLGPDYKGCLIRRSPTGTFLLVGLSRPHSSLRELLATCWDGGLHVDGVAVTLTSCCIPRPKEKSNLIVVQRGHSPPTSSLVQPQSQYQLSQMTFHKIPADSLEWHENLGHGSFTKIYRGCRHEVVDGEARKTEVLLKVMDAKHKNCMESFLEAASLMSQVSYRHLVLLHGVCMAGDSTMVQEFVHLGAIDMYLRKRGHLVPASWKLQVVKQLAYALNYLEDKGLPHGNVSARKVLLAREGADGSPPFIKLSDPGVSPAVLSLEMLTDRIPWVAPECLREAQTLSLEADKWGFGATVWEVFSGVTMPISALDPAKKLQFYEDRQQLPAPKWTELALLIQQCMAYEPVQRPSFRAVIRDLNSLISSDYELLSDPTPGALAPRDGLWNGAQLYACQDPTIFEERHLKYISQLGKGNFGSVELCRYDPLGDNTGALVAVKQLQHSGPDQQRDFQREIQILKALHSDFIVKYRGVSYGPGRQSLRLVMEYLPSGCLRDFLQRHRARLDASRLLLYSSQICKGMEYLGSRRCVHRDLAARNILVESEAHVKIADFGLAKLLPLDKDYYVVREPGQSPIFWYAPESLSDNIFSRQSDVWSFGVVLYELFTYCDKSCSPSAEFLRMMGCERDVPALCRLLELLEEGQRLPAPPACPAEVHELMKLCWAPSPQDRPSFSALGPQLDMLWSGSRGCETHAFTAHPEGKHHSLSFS"}, "TYK2": {"target": "TYK2 (Homo sapiens, UniProt P29597)", "sequence (P29597 whole entry)": "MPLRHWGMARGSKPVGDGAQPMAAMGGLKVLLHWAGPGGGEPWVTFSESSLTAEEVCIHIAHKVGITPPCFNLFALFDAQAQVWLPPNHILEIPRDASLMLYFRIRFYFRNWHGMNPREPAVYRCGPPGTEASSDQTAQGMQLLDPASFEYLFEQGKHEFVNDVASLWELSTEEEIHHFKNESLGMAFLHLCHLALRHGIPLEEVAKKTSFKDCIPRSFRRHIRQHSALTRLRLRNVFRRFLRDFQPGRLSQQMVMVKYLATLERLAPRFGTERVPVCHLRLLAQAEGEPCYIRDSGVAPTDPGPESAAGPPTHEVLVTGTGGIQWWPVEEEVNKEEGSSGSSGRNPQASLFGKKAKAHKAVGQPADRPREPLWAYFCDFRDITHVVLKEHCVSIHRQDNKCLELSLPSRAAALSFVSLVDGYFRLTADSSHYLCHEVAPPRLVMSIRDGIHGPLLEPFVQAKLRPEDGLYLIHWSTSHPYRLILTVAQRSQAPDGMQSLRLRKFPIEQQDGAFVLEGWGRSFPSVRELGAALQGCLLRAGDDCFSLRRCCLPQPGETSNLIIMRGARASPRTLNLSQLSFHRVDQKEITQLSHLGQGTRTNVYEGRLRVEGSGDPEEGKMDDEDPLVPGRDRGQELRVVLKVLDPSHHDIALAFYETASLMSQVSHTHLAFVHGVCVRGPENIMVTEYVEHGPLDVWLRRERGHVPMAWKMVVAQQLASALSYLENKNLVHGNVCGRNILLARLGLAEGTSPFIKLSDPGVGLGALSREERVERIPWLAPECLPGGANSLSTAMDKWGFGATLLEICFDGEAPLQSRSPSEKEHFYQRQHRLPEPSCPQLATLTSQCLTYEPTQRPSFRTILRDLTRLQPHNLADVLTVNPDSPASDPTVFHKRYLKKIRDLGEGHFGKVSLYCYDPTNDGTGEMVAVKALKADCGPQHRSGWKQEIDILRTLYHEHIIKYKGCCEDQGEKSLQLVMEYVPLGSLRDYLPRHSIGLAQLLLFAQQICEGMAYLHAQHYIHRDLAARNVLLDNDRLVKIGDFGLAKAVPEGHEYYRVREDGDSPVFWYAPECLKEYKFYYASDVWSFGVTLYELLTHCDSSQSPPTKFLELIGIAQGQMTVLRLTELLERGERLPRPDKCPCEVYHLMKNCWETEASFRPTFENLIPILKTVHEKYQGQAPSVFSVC"}, "JAK1": {"target": "JAK1 (Homo sapiens, UniProt P23458)", "sequence (P23458 whole entry)": "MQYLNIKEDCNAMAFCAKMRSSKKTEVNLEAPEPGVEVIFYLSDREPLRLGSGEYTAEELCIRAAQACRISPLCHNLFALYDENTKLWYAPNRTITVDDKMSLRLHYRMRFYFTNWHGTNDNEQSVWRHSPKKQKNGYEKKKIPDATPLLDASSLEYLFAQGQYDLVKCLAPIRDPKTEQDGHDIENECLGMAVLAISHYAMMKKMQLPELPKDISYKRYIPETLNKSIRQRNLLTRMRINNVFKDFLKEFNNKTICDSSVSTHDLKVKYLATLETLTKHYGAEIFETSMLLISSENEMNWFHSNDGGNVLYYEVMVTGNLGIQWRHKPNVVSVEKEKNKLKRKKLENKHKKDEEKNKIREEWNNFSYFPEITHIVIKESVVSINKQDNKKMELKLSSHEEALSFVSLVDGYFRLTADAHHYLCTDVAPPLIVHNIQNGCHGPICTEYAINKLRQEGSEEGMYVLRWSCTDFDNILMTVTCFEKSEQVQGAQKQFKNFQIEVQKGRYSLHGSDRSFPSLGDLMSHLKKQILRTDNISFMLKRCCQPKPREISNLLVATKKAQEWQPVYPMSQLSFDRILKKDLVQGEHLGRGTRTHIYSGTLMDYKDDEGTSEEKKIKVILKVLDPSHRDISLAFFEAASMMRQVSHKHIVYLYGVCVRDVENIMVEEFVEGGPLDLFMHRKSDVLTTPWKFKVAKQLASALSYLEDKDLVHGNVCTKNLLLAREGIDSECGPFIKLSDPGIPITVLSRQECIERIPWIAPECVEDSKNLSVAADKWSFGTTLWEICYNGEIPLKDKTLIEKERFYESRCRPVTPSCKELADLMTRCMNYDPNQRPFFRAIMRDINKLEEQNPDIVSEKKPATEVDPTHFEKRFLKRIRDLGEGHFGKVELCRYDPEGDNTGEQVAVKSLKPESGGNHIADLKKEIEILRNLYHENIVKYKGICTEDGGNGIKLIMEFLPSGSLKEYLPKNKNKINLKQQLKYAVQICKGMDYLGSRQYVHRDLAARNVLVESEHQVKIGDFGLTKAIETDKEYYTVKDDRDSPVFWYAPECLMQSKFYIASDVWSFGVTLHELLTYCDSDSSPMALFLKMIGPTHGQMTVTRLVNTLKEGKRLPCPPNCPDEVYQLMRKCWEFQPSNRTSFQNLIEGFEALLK"}}, "note": "pIC50: −log10 of the molar value.", "data": [{"substance": "NDI-031407", "values": [{"measurement": "pIC50", "setting": "JAK2", "value": 7.51}, {"measurement": "pIC50", "setting": "JAK3", "value": 8.38}, {"measurement": "pIC50", "setting": "TYK2", "value": 9.68}, {"measurement": "pIC50", "setting": "JAK1", "value": 7.34}]}]}
